Among the data in ChEMBL document CHEMBL1671765, “Microbiologic and clinical implications of bacteremia due to extended-spectrum-beta-lactamase-producing Klebsiella pneumoniae with or without plasmid-mediated AmpC beta-lactamase DHA-1” (2010) are MIC50, MIC90 and MIC values, retold here.

What all share (type): functional
The subject of assay [1] is Klebsiella pneumoniae. Description: Antibacterial activity against ESBL-producing Klebsiella pneumoniae by Etest.
The subject of assay [2] is Klebsiella pneumoniae. Description: Antibacterial activity against plasmid-mediated AmpC beta-Lactamase DHA-1 and ESBL-producing Klebsiella pneumoniae by Etest.
For assay [3], the system named is Klebsiella pneumoniae. Description: Antibacterial activity against ESBL-producing Klebsiella pneumoniae by Etest in presence of Tazobactam.
Assay [4] concerns Klebsiella pneumoniae. Description: Antibacterial activity against plasmid-mediated AmpC beta-Lactamase DHA-1 and ESBL-producing Klebsiella pneumoniae by Etest in presence of Tazobactam.

Molecules are shown by their SMILES. In brackets after ≈: the same amount, converted by molar mass. Where only a bound is given, the exact number is not on record here.

Broadly, the MIC50 is an inhibitory concentration at the 50% level, which refers to growth in some studies and to a panel of isolates in others. By MIC90 is commonly meant the lowest concentration that inhibits either 90% of growth or 90% of the strains tested, depending on the study. On to `NCC[C@H](O)C(=O)N[C@@H]1C[C@H](N)[C@@H](O[C@H]2O[C@H](CN)[C@@H](O)[C@H](O)[C@H]2O)[C@H](O)[C@H]1O[C@H]1O[C@H](CO)[C@@H](O)[C@H](N)[C@H]1O` [AMIKACIN], for which the MIC50 was 4 µg/mL (≈ 6.83 µM) in assay [1] and > 256 µg/mL in assay [2]. Besides, the values for the MIC90 in assay [1] and in assay [2] were 32 µg/mL (≈ 54.6 µM) and > 256 µg/mL, respectively.
In the case of `O=C(O)c1cn(C2CC2)c2cc(N3CCNCC3)c(F)cc2c1=O` [CIPROFLOXACIN], in assay [1], the MIC50 was 0.125 µg/mL (≈ 0.377 µM) and the MIC90 turned out to be 8 µg/mL (≈ 24.1 µM). Besides, in assay [2], the MIC50 was > 32 µg/mL and the MIC90 is > 32 µg/mL.
The term MIC denotes the least concentration at which growth counts as inhibited. A low value points to inhibition by little substance. Consider `C[C@@H](O)[C@H]1C(=O)N2C(C(=O)O)=C(S[C@@H]3CN[C@H](C(=O)Nc4cccc(C(=O)O)c4)C3)[C@H](C)[C@H]12` [ERTAPENEM], for which, in assay [1], 0.015 µg/mL (≈ 0.0315 µM) was the least that counted as inhibitory (MIC), the MIC50 stood at 0.015 µg/mL (≈ 0.0315 µM) and the MIC90 amounted to 0.5 µg/mL (≈ 1.05 µM). In assay [2], this compound returned an MIC of 0.5 µg/mL (≈ 1.05 µM), an MIC50 of 0.5 µg/mL (≈ 1.05 µM) and an MIC90 of 2 µg/mL (≈ 4.21 µM).
In assay [1], `C[C@@H](O)[C@H]1C(=O)N2C(C(=O)O)=C(SCCNC=N)C[C@H]12` [IMIPENEM ANHYDROUS] displayed an MIC50 of 0.25 µg/mL (≈ 0.835 µM) and an MIC90 of 0.5 µg/mL (≈ 1.67 µM). Further, in assay [2], the MIC50 was 0.5 µg/mL (≈ 1.67 µM) and the MIC90 was 2 µg/mL (≈ 6.68 µM).
With `C[C@@H](O)[C@H]1C(=O)N2C(C(=O)O)=C(S[C@@H]3CN[C@H](C(=O)N(C)C)C3)[C@H](C)[C@H]12` [MEROPENEM], the MIC50 stood at 0.03 µg/mL (≈ 0.0782 µM) in assay [1] and 0.12 µg/mL (≈ 0.313 µM) in assay [2]. Moreover, the MIC90 in assay [1] came out at 0.06 µg/mL (≈ 0.156 µM); in assay [2], 0.5 µg/mL (≈ 1.3 µM).
`CCN1CCN(C(=O)N[C@@H](C(=O)N[C@@H]2C(=O)N3[C@@H]2SC(C)(C)[C@@H]3C(=O)O)c2ccccc2)C(=O)C1=O` [PIPERACILLIN]: the MIC50 in assay [3] and in assay [4] was 8 µg/mL in each case. The MIC90 in assay [3] was determined as 32 µg/mL; in assay [4] it was 64 µg/mL.
